Type in all cases: cell-based, human
Experiment [1] concerns T cells in PBMC of EBV seropositive donors. Briefly: IFN-γ ELISPOT assay, ex vivo stimulation of PBMC with LMP1 peptides. On the procedure: The ELISPOT assay was used to assess whether stimulation of PBMC from a large panel of seropositive donors with LMP1 peptides could induce IFN-γ expression in T cells (Bharadwaj 2001). Briefly, ninety six-well mixed cellulose ester membrane plates (Millipore, Bedford, USA) were precoated with 100 μL/well of […] of anti-IFN-γ mAb, 1-D1K (Mabtech, Stockhohn, Sweden) overnight at 4° C. The plate was washed six times with phosphate-buffered saline (PBS), and unreactive sites blocked using 5% foetal bovine serum. PBMCs from healthy EBV carriers of known HLA types were separated from whole blood by Ficoll-Hypaque (Sigma) density gradient centrifugation. PBMCs were added in triplicate wells at 2.5×10^5 cells in a volume of 100 μL/well, and then peptides were added onto the PBMCs at a final 5 μg/mL concentration. PBMCs were also tested at different concentrations in triplicate wells at 2.5×10^5, 1.5×10^5 and 1×10^5 cells/well. PBMCs with various peptide concentrations, 10 μg/mL, 5 μg/mL and 1 μg/mL, were assayed. For negative controls, PBMCs were incubated in growth medium alone without adding peptides. The plate was incubated at 37° C. with 5% CO2 overnight (about 16-20 hr), then washed thrice with PBST (0.05% of Tween-20 in PBS) and three times with PBS before 100 μL/well of 1 μg/mL anti-IFN-γ mAb, 7-B6-1 (Mabtech, Stockholn, Sweden) was added and incubated at room temperature for 3-4 hr. After incubation, the plate was washed again thrice each with PBST and PBS, and 100 μL/well of 1 μg/mL streptavidin-alkaline phosphatase conjugate (Sigma) was added. The plate was incubated at room temperature for 2 hr. Wells were washed again three times each with PBST and PBS, and individual IFN-γ-producing cells were detected as dark spots after about 30-min to an hour-colour reaction with 5-bromo-4-chloro-3-indolylphosphate and nitroblue tetrazolium using an alkaline phosphatase-conjugated substrate (BCIP/NBT; Sigma). Spots were counted automatically using an image analysis software (ImagePro) (Bharadwaj 2001), and were expressed as spot-forming cells (SFC) per 10^6 PBMCs. The number of IFN-γ-secreting T cells was calculated by subtracting the negative control value from the SFC count.
To comprehensively profile the memory T cell responses against the LMP1 in seropositive virus carriers we used the ELISPOT assay, which allowed rapid ex vivo profiling of LMP1-specific immune response without prolonged in vitro culture. PBMC isolated from a panel of seropositive healthy virus carriers (Table 2) were stimulated with the complete set of overlapping LMP1 peptides and the cells that produced IFN-γ were detected. […] One of the interesting features of these responses was that the majority of the T cell reactivity was directed towards the epitopes within the transmembrane and CTAR1 domains of LMP1, while no reactivity was observed towards the CTAR2 and N-terminus (FIG. 1B). In particular, almost 80% of the CTAR1 domain was targeted for T cell recognition. To identify the T cell subsets responding to these peptides, PBMCs from the seven donors who recognized 17-mer peptides were fractionated into CD4-depleted and CD8-depleted populations and then tested again in ELISPOT assays. […] The CD4-dependent reactivity of the peptide […] was consistent with the previous observations by Leen and colleagues who mapped an HLA DQ2-restricted epitope within this sequence.
In order to determine the frequency of recognition of the HLA class I-restricted LMP1 CTL epitopes, PBMC from a panel of healthy virus carriers of diverse ethnic origin were screened by ELISPOT assays. Four different HLA class I-restricted and one HLA class II-restricted T cell epitopes were included in this analysis. Strong responses were observed against the HLA-A2-restricted […], […] and […] epitopes in 35-45% of the donors tested. […]

The subject of experiment [2] is peptide-sensitised PHA blasts and LCLs. Briefly: 51Cr-release cytotoxicity assay with peptide-specific CTL lines and clones. To be noted: for sensitizing autologous PHA blast to lysis by YLLEMLWRL-specific CTL clone: serial dilutions of peptide, compared with wild-type YLLEMLWRL, CTL clone SB7; for generation of CTL lines with minimised epitope: donors. On the procedure: Polyclonal CTL lines and LMP1-specific CTL clones were established according to previously published methods (Moss 1988; Khanna 1998). Briefly, 2×10^6 PBMCs were stimulated with 1×10^6 autologous lymphocytes (responder to stimulator ratio of 2:1) pulsed with 10 μM peptide for 1 hr in 2 ml in a 24-well plate. After 3 days, culture medium with IL-2 (10 U/ml) was added and the cells were further expanded. These lymphocytes were restimulated on day 7 with γ-irradiated (8000 rad) autologous LCLs. After 10 days in culture medium, the cells were used as polyclonal effectors in a standard ^51Cr-release assay against peptide-sensitised autologous PHA blasts.
To generate peripheral blood CTL clones specific for the LMP1 derived peptides, PBMCs of healthy donors were reactivated (2×10^6) PBMCs with peptide-sensitised (10 ug of peptide/ml) autologous lymphocytes (1×10^6) in 2 ml wells of a 24-well plate in culture medium. After 3 days, the cells were seeded onto 0.35% agarose and maintained in T cell growth medium containing rIL2 (50 IU/ml). After another 3 days, growing clones were transferred to 96-well round-bottom tissue culture plates (Life Technologies) and cultured in T cell growth medium containing rIL2 (50-100 IU/ml).
Target cells were pre-sensitized with synthetic peptide epitopes and then incubated with ^51Cr for 90 min. Following incubation, these cells were washed in growth medium and used as targets in a standard 5 h ^51Cr-release assay (Moss, 1988)
To further characterize the minimal T cell epitopes defined by ELISPOT assays we generated polyclonal and clonal CTL lines specific for these epitopes. PBMCs from the healthy seropositive donors were stimulated with synthetic peptide epitopes and the CTL clones or polyclonal lines were established and tested in standard ^51Cr-release assays. The […] peptide-specific CTL clones were generated using initial stimulation with peptide-sensitized autologous PBMC followed by continuous restimulation with irradiated autologous LCL. These CTL clones were screened for […]-specific CTL activity by ^51Cr release assays against peptide-sensitised autologous and allogeneic PHA blast and LCLs. […] Titration of this minimal epitope on autologous PHA blasts further confirmed the fine specificity of this CTL clone (FIG. 5B).

Experiment [3] has as its system CD4+ and CD8+ T cell populations of PBMC. The experiment is described as follows: IFN-γ ELISPOT on CD4- or CD8-depleted PBMC. As to conditions: peptide 10 μg/ml. On the procedure: FIG. 2: Ex vivo detection of IFN-γ secretion by CD4^+ and CD8^+ T cell populations following stimulation with LMP1 peptides. CD4^+ cells or CD8^+ cells were depleted from fresh PBMCs using anti-human CD4 or CD8 immunomagnetic beads as described in the Material and Methods section. These cells were resuspended in growth medium and stimulated with […] (SEQ ID NO: 36; panel A) and […] (SEQ ID NO: 39; panel B) peptides (10 μg/ml) and then tested for IFN-γ secretion using ELISPOT assays.
CD4^+ cells or CD8^+ cells were depleted from fresh PBMCs using anti-human CD4 or CD8 immunomagnetic beads (Dynabeads M450-CD4 and M450-CD8), respectively (Dynal, Oslo, Norway) according to the manufacturer's instructions. Efficient depletion was confirmed by staining the depleted PBMCs using dual staining with FITC-conjugated anti-CD8 and PE-conjugated anti-CD4 antibody and flow cytometry on a Coulter EPICS XL cytometer. […]
To comprehensively profile the memory T cell responses against the LMP1 in seropositive virus carriers we used the ELISPOT assay, which allowed rapid ex vivo profiling of LMP1-specific immune response without prolonged in vitro culture. PBMC isolated from a panel of seropositive healthy virus carriers (Table 2) were stimulated with the complete set of overlapping LMP1 peptides and the cells that produced IFN-γ were detected. […]

Where [4] appears, read: subject nineteen (NPC), donor theta.

For the sequence IALYLQQNW, in experiment [1] (responders/tested), the “HLA B58-positive donors recognizing the epitope” value is listed as 3/5. Also, the “CTL response (SFC/10^6 PBMC)” value in experiment [1] (subject delta) stood at 0 SFC/10^6 PBMC; in experiment [1] (subject eight), 1952 SFC/10^6 PBMC; in experiment [1] (subject eleven), 504 SFC/10^6 PBMC; in experiment [1] (subject eta (NPC)), 0 SFC/10^6 PBMC; in experiment [1] (subject five), 100 SFC/10^6 PBMC; in experiment [1] (subject fourteen), 955 SFC/10^6 PBMC. The “CTL response (SFC/10^6 PBMC)” value amounted to 0 SFC/10^6 PBMC in experiment [1] (subject gamma); 240 SFC/10^6 PBMC in experiment [1] (subject nine); 0 SFC/10^6 PBMC in experiment [1] (setting [4]); 897 SFC/10^6 PBMC in experiment [1] (subject seventeen); 455 SFC/10^6 PBMC in experiment [1] (subject six); 80 SFC/10^6 PBMC in experiment [1] (subject ten). Further, the “CTL response (SFC/10^6 PBMC)” value in experiment [1] (subject two) came out at 48 SFC/10^6 PBMC.

With ALLVLYSFA, the “CTL response (SFC/10^6 PBMC)” value in experiment [1] (subject beta) came to 0 SFC/10^6 PBMC; in experiment [1] (subject eighteen), 1184 SFC/10^6 PBMC; in experiment [1] (subject eleven), 128 SFC/10^6 PBMC; in experiment [1] (subject epsilon), 0 SFC/10^6 PBMC; in experiment [1] (subject fifteen), 80 SFC/10^6 PBMC; in experiment [1] (subject four) it was 0 SFC/10^6 PBMC. Also, the “CTL response (SFC/10^6 PBMC)” value is given as 0 SFC/10^6 PBMC in experiment [1] (subject gamma); 0 SFC/10^6 PBMC in experiment [1] (setting [4]); 96 SFC/10^6 PBMC in experiment [1] (subject one); 480 SFC/10^6 PBMC in experiment [1] (subject six); 0 SFC/10^6 PBMC in experiment [1] (subject thirteen); 192 SFC/10^6 PBMC in experiment [1] (subject three). The “CTL response (SFC/10^6 PBMC)” value in experiment [1] (subject twenty) turned out to be 88 SFC/10^6 PBMC; in experiment [1] (subject twenty-one) it was 592 SFC/10^6 PBMC; in experiment [1] (subject twenty-two) it was 10 SFC/10^6 PBMC; in experiment [1] (subject zeta), 0 SFC/10^6 PBMC.

YLMEILWRL: the “sensitizing autologous PHA blast to lysis by YLLEMLWRL-specific CTL clone” value in experiment [2] was “poorly recognized”.

In the case of YLLEMLWRL [reference compound], the “CTL response (SFC/10^6 PBMC)” value in experiment [1] (subject beta) was determined as 0 SFC/10^6 PBMC; in experiment [1] (subject eleven), 136 SFC/10^6 PBMC; in experiment [1] (subject epsilon) it was 0 SFC/10^6 PBMC; in experiment [1] (subject fifteen) it was 300 SFC/10^6 PBMC; in experiment [1] (subject four) it was 0 SFC/10^6 PBMC; in experiment [1] (subject gamma), 0 SFC/10^6 PBMC. Further, the “CTL response (SFC/10^6 PBMC)” value in experiment [1] (setting [4]) was determined as 0 SFC/10^6 PBMC; in experiment [1] (subject seven), 100 SFC/10^6 PBMC; in experiment [1] (subject sixteen), 20 SFC/10^6 PBMC; in experiment [1] (subject thirteen), 0 SFC/10^6 PBMC; in experiment [1] (subject three) it was 42 SFC/10^6 PBMC; in experiment [1] (subject twelve), 0 SFC/10^6 PBMC. Moreover, the “CTL response (SFC/10^6 PBMC)” value in experiment [1] (subject twenty) is reported as 160 SFC/10^6 PBMC; in experiment [1] (subject twenty-one), 66 SFC/10^6 PBMC; in experiment [1] (subject zeta), 0 SFC/10^6 PBMC.

Turning to DSNSNEGRH, the “generation of CTL lines with minimised epitope” value in experiment [2] is “did not generate CTL lines”.

Consider TDDSGHESDSNSNEGRH, for which the “T cell subset responding to the peptide” value in experiment [3] was “predominantly mediated by CD4+ cells”. In addition, in experiment [1], the “healthy virus carriers tested recognizing the epitope” value is recorded as “all three”. Besides, the “healthy donors showing a CD8+ T-cell response in Elispot assays” value in experiment [1] (responders/healthy donors assessed) was 3/21. In experiment [1] (responding healthy donors), the magnitude of responses is on record as 131-190 SFC/10^6 PBMC. The “CTL response (SFC/10^6 PBMC)” value is listed as 190 SFC/10^6 PBMC in experiment [1] (subject seventeen), 131 SFC/10^6 PBMC in experiment [1] (subject ten) and 141 SFC/10^6 PBMC in experiment [1] (subject twenty). The “recognition of peptide coated autologous PHA blasts by polyclonal CTL lines” value in experiment [2] (CTL lines from two donors, data not shown) is “recognition”.

On to YLQQNWWTL [reference compound], for which the “CTL response (SFC/10^6 PBMC)” value in experiment [1] (subject beta) stood at 0 SFC/10^6 PBMC; in experiment [1] (subject eleven), 196 SFC/10^6 PBMC; in experiment [1] (subject epsilon), 0 SFC/10^6 PBMC; in experiment [1] (subject fifteen), 100 SFC/10^6 PBMC; in experiment [1] (subject four), 0 SFC/10^6 PBMC; in experiment [1] (subject gamma) it was 0 SFC/10^6 PBMC. Further, the “CTL response (SFC/10^6 PBMC)” value in experiment [1] (setting [4]) came to 0 SFC/10^6 PBMC; in experiment [1] (subject seven) it was 110 SFC/10^6 PBMC; in experiment [1] (subject sixteen), 26 SFC/10^6 PBMC; in experiment [1] (subject thirteen), 0 SFC/10^6 PBMC; in experiment [1] (subject three), 28 SFC/10^6 PBMC; in experiment [1] (subject twelve), 44 SFC/10^6 PBMC. Moreover, the “CTL response (SFC/10^6 PBMC)” value in experiment [1] (subject twenty) is recorded as 244 SFC/10^6 PBMC; in experiment [1] (subject twenty-one), 38 SFC/10^6 PBMC; in experiment [1] (subject zeta), 0 SFC/10^6 PBMC.

With YFLEILWGL, the “sensitizing autologous PHA blast to lysis by YLLEMLWRL-specific CTL clone” value in experiment [2] is “poorly recognized”.

For DWTGGALLVLYSFALML [LMP1 17-mer peptide], the “T cell subset responding to the peptide” value in experiment [3] is “only CD8^+ T-cell dependent reactivity”.

As to ESDSNSNEG [reference compound], the “generation of CTL lines with minimised epitope” value in experiment [2] is “did not generate CTL lines”.

Values taken from patent US20070048329A1, “Epstein barr virus peptide epitopes, polyepitopes and delivery system therefor” (priority 2002, published 2007).
